Where two headings read alike, the source gives them in different places.
System: patients with HFrEF by ejection fraction quartile
Format: in vivo, human
Parameters: Change from baseline in KCCQ Total Symptom Score, least square mean / KCCQ Total Symptom Score Inpatient, Treatment Difference, least squares mean / KCCQ Total Symptom Score Outpatient, Treatment Difference, least squares mean / KCCQ Total Symptom Score, Treatment Difference, least squares mean: scale not given here
Conditions: for Troponin I (Ratio) / Troponin I, Treatment Difference (95% CI) / Creatinine, Treatment Difference / Heart rate, Treatment Difference / KCCQ Total Symptom Score, Treatment Difference, least squares mean / NT-proBNP (Ratio) / Potassium, Treatment Difference / Systolic BP, Treatment Difference / KCCQ Total Symptom Score Inpatient, Treatment Difference, least squares mean / KCCQ Total Symptom Score Outpatient, Treatment Difference, least squares mean: baseline to Week 24; for Change from baseline in KCCQ Total Symptom Score, least square mean: Week 24
Description: Continuous variables were summarized via means and standard deviations or medians and interquartile ranges, as appropriate. Categorical variables are summarized with counts and percentages. Tests of trend across categories were conducted via linear regression, Cuzick's non-parametric trend test, and Chi-squared tests of trend, respectively. Treatment effects on continuous outcomes were assessed via linear regression models adjusted for the corresponding baseline value of the parameter of interest. Survival analyses were conducted using Poisson regression models to estimate incidence rates, rate differences, and rate ratios and Cox proportional hazards models to estimate hazard ratios. […] To allow for potentially non-linear associations between ejection fraction and time-to-event outcomes, restricted cubic splines were utilized in the Poisson regression models with 3 knots. All analyses were conducted using STATA 16 (College Station, Tex.). P-values <0.05 were considered statistically significant. Due to the exploratory nature of these analyses, no adjustments were made for multiple comparisons.
Within each randomization setting subgroup least squares mean is from the mixed model which includes baseline total symptom score value, region, baseline eGFR, scheduled visit, treatment group and interaction of treatment with scheduled visit as covariates. Influence of Ejection Fraction on the Treatment Effect of Omecamtiv Mecarbil

COC(=O)N1CCN(Cc2cccc(NC(=O)Nc3ccc(C)nc3)c2F)CC1 [omecamtiv mecarbil]
Troponin I (Ratio) (EF 29-32%, vs placebo): 1.27
Troponin I, Treatment Difference (95% CI) (EF 29-32%, vs placebo): 4 (3, 5) ng/L
Adjudicated First Major Cardiac Ischemic Events, % (EF 33%, OM group): 6.5%
Adjudicated First Stroke, % (EF 33%, OM group): 1.8%
Adverse Event: Ventricular Tachyarrhythmia, % (EF 33%, OM group): 6.4%
Any treatment Emergent Serious Adverse Events, % (EF 33%, OM group): (55.5%)
Positively Adjudicated Myocardial Infarction, % (EF 33%, OM group): 3.8%
Serious Adverse Event: Ventricular Arrhythmia Requiring Treatment, % (EF 33%, OM group): 2.5%
Adjudicated First Major Cardiac Ischemic Events, Relative Risk (EF 33%, OM vs placebo): 0.99
Adjudicated First Stroke, Relative Risk (EF 33%, OM vs placebo): 0.77
Adverse Event: Ventricular Tachyarrhythmia, Relative Risk (EF 33%, OM vs placebo): 0.88
Any treatment Emergent Serious Adverse Events, Relative Risk (EF 33%, OM vs placebo): 1.02
Positively Adjudicated Myocardial Infarction, Relative Risk (EF 33%, OM vs placebo): 1.02
Serious Adverse Event: Ventricular Arrhythmia Requiring Treatment, Relative Risk (EF 33%, OM vs placebo): 1.11
1st HF Hospitalization (%) (EF ≤22%, OM group): (30%)
1st HF Hospitalization Rate (EF ≤22%, OM group): 20.9 per 100 patient years
1st HF Hospitalization n/N (EF ≤22%, OM group): 340/1127
First HF Event (%) (EF ≤22%, OM group): (31%)
First HF Event Rate (EF ≤22%, OM group): 21.7 per 100 patient years
First HF Event n/N (EF ≤22%, OM group): 351/1127
Primary Outcome (%) (EF ≤22%, OM group): (41%)
Primary Outcome Rate (EF ≤22%, OM group): 28.3 per 100 patient years
Primary Outcome n/N (EF ≤22%, OM group): 457/1127
Total HF Events, Events (EF ≤22%, OM group): 719
Total HF Events, Rate (EF ≤22%, OM group): 37.1 per 100 pt-yrs
Total HF Hospitalizations, Events (EF ≤22%, OM group): 679
Total HF Hospitalizations, Rate (EF ≤22%, OM group): 35.1 per 100 pt-yrs
1st HF Hospitalization ARR (EF ≤22%, OM vs placebo): 6.1 per 100 patient years
1st HF Hospitalization HR (95% CI) (EF ≤22%, OM vs placebo): 0.82 (0.71, 0.94)
First HF Event ARR (EF ≤22%, OM vs placebo): 6.6 per 100 patient years
First HF Event HR (95% CI) (EF ≤22%, OM vs placebo): 0.81 (0.70, 0.93)
Primary Outcome ARR (EF ≤22%, OM vs placebo): 7.4 per 100 patient years
Primary Outcome HR (95% CI) (EF ≤22%, OM vs placebo): 0.83 (0.73, 0.95)
Total HF Events, ARR (EF ≤22%, OM vs placebo): 11.3 per 100 pt-yrs
Total HF Events, Ratio (95% CI) (EF ≤22%, OM vs placebo): 0.83 (0.70, 1.01)
Total HF Hospitalizations, ARR (EF ≤22%, OM vs placebo): 9.9 per 100 pt-yrs
Total HF Hospitalizations, Ratio (95% CI) (EF ≤22%, OM vs placebo): 0.84 (0.70, 1.01)
Creatinine, Treatment Difference (EF ≤22%, vs placebo): -0.01 mg/dL
Heart rate, Treatment Difference (EF ≤22%, vs placebo): −1.6 bpm
KCCQ Total Symptom Score, Treatment Difference, least squares mean (EF ≤22%, vs placebo): +1.6
NT-proBNP (Ratio) (EF ≤22%, vs placebo): 0.78
Potassium, Treatment Difference (EF ≤22%, vs placebo): 0.01 mmol/L
Systolic BP, Treatment Difference (EF ≤22%, vs placebo): 0.9 mmHg
Troponin I (Ratio) (EF ≤22%, vs placebo): 1.19
Troponin I, Treatment Difference (95% CI) (EF ≤22%, vs placebo): 5 (4, 6) ng/L
1st HF Hospitalization (%) (EF ≥33%, OM group): 26%
1st HF Hospitalization Rate (EF ≥33%, OM group): 15.5 per 100 patient years
1st HF Hospitalization n/N (EF ≥33%, OM group): 228/892
All-cause Death (%) (EF ≥33%, OM group): 22%
All-cause Death Rate (EF ≥33%, OM group): 11.8 per 100 patient years
All-cause Death n/N (EF ≥33%, OM group): 200/892
First HF Event (%) (EF ≥33%, OM group): 26%
First HF Event Rate (EF ≥33%, OM group): 16.2 per 100 patient years
First HF Event n/N (EF ≥33%, OM group): 236/892
Primary Outcome (%) (EF ≥33%, OM group): 33%
Primary Outcome Rate (EF ≥33%, OM group): 20.5 per 100 patient years
Primary Outcome n/N (EF ≥33%, OM group): 298/892
Total HF Events, Events (EF ≥33%, OM group): 483
Total HF Events, Rate (EF ≥33%, OM group): 28.5 per 100 pt-yrs
Total HF Hospitalizations, Events (EF ≥33%, OM group): 449
Total HF Hospitalizations, Rate (EF ≥33%, OM group): 26.5 per 100 pt-yrs
1st HF Hospitalization ARR (EF ≥33%, OM vs placebo): −1.2 per 100 patient years
1st HF Hospitalization HR (95% CI) (EF ≥33%, OM vs placebo): 1.03 (0.85, 1.24)
All-cause Death ARR (EF ≥33%, OM vs placebo): −0.1 per 100 patient years
All-cause Death HR (95% CI) (EF ≥33%, OM vs placebo): 0.98 (0.80, 1.20)
First HF Event ARR (EF ≥33%, OM vs placebo): −1.3 per 100 patient years
First HF Event HR (95% CI) (EF ≥33%, OM vs placebo): 1.04 (0.86, 1.25)
Primary Outcome ARR (EF ≥33%, OM vs placebo): −0.4 per 100 patient years
Primary Outcome HR (95% CI) (EF ≥33%, OM vs placebo): 0.99 (0.84, 1.16)
Total HF Events, ARR (EF ≥33%, OM vs placebo): −4.7 per 100 pt-yrs
Total HF Events, Ratio (95% CI) (EF ≥33%, OM vs placebo): 1.13 (0.90, 1.43)
Total HF Hospitalizations, ARR (EF ≥33%, OM vs placebo): −3.6 per 100 pt-yrs
Total HF Hospitalizations, Ratio (95% CI) (EF ≥33%, OM vs placebo): 1.12 (0.89, 1.43)
Creatinine, Treatment Difference (EF ≥33%, vs placebo): 0.02 mg/dL
Heart rate, Treatment Difference (EF ≥33%, vs placebo): −1.1 bpm
KCCQ Total Symptom Score, Treatment Difference, least squares mean (EF ≥33%, vs placebo): −1.0
NT-proBNP (Ratio) (EF ≥33%, vs placebo): 0.97
Potassium, Treatment Difference (EF ≥33%, vs placebo): 0.02 mmol/L
Systolic BP, Treatment Difference (EF ≥33%, vs placebo): −1.2 mmHg
Troponin I (Ratio) (EF ≥33%, vs placebo): 1.27
Troponin I, Treatment Difference (95% CI) (EF ≥33%, vs placebo): 3 (2, 4) ng/L
Change from baseline in KCCQ Total Symptom Score, least square mean (Inpatient, EF 23-28%): 21.51
KCCQ Total Symptom Score Inpatient, Treatment Difference, least squares mean (Inpatient, EF 23-28%, vs placebo): +0.2
Change from baseline in KCCQ Total Symptom Score, least square mean (Inpatient, EF 29-32%): 22.34
KCCQ Total Symptom Score Inpatient, Treatment Difference, least squares mean (Inpatient, EF 29-32%, vs placebo): +4.8
Change from baseline in KCCQ Total Symptom Score, least square mean (Inpatient, EF ≤22%): 27.70
KCCQ Total Symptom Score Inpatient, Treatment Difference, least squares mean (Inpatient, EF ≤22%, vs placebo): +4.9
Change from baseline in KCCQ Total Symptom Score, least square mean (Inpatient, EF ≥33%): 22.09
KCCQ Total Symptom Score Inpatient, Treatment Difference, least squares mean (Inpatient, EF ≥33%, vs placebo): −0.0
Change from baseline in KCCQ Total Symptom Score, least square mean (Outpatient, EF 23-28%): 5.61
KCCQ Total Symptom Score Outpatient, Treatment Difference, least squares mean (Outpatient, EF 23-28%, vs placebo): −0.6
Change from baseline in KCCQ Total Symptom Score, least square mean (Outpatient, EF 29-32%): 5.30
KCCQ Total Symptom Score Outpatient, Treatment Difference, least squares mean (Outpatient, EF 29-32%, vs placebo): −0.8
Change from baseline in KCCQ Total Symptom Score, least square mean (Outpatient, EF ≤22%): 7.08
KCCQ Total Symptom Score Outpatient, Treatment Difference, least squares mean (Outpatient, EF ≤22%, vs placebo): +0.7
Change from baseline in KCCQ Total Symptom Score, least square mean (Outpatient, EF ≥33%): 5.18
KCCQ Total Symptom Score Outpatient, Treatment Difference, least squares mean (Outpatient, EF ≥33%, vs placebo): −1.5
Increase in troponin I, median (across the EF quartiles, limit of detection 6 ng/L, upper reference limit 40 ng/L): 3 to 5 ng/L
Incidence of adverse events, omecamtiv mecarbil vs placebo (by EF quartile, result in words): no significant differences
Effect on symptoms as assessed by the KCCQ-TSS as a function of EF (inpatient or outpatient settings, result in words): no consistent beneficial effect
Absolute risk reduction, primary composite endpoint (lowest ejection fraction quartile): 7.4 events per 100 patient-years
Relative risk reduction, primary composite endpoint (lowest ejection fraction quartile (EF ≤22%)): 17%
Number-needed-to-treat to prevent an event (over 3 years, lowest ejection fraction quartile): 11.8
Effect on cardiovascular death (overall population and as a function of baseline ejection fraction, result in words): no overall effect
Primary endpoint, hazard ratio (patients with EF ≤28%, vs placebo): 0.84
Primary endpoint, hazard ratio (patients with EF>28%, vs placebo): 1.04
Reduction in time-to-first heart failure event or cardiovascular death (primary endpoint) (patients with ejection fraction ≤28% (below the median)): 16%
Effect on all-cause mortality (result in words): no effect
Relative risk reduction, primary composite endpoint (second lowest ejection fraction quartile (EF 23-28%)): 15%
Incidence of adjudicated stroke (vs placebo, result in words): apparent reduction
Change of NT-proBNP (week 24, highest EF quartile): 3%
Reduction of NT-proBNP (week 24, lowest EF quartile (≤22%)): 22%

Reference: patent US12194039B2, “Methods of treating heart failure by administering omecamtiv mecarbil” (Cytokinetics, Inc., priority 2020, dated 2025)
